# Experimental data published in patent publication US12213485B2, “Synergistic methods of using benzoxaborole compounds and preservative gases as an antimicrobial for crops” (AGROFRESH INC., priority 2016, dated 2025).
# Assays:
# [1] = test system: Fusarium sambucinum (FUSASA); test: In vitro fungal growth on inoculated agar plates, benzoxaborole and CO2 chamber treatment; assay type: cell-based
# Excerpt: (§1) The following experiments were used to determine synergy between benzoxaborole Compounds A, B, and/or C and preservative gases, such as carbon dioxide (CO2) and sulfur dioxide (SO2). Specific rates or any other unique conditions are noted within the corresponding results tables. Each experiment comprised an air-tight 36 liter (L) chamber (Fisher Scientific, P/N: 08-642-23C), fitted with a bulkhead septum port (Swagelok, P/N: SS-400-61, Solon, OH) used for treatment delivery, as well as for monitoring (using needle extraction) carbon dioxide (CO2), sulfur dioxide (SO2), oxygen (O2) or other headspace samples. A variable speed fan (Thermaltake, Mobile Fan II, P/N: A1888, Taipei City, Taiwan) set to low was also used to circulate the headspace atmosphere.
# (§2) In vitro and in vivo experiments were performed concurrently in triple replicates (i.e., triplicate) unless otherwise noted. For in vitro experiments, a single 6-well microtiter plate or three, 10-cm petri plates each containing half strength Potato Dextrose Agar were prepared. Each well or plate was inoculated with 1 microliter (μL) of 1×10^5 spores/ml of the appropriate pathogenic spore suspension (e.g., Botrytis cinerea, BOTRCI; Penicillium expansum, PENIEX; Mucor piriformis, MUCOPI; Fusarium sambucinum FUSASA; or Aspergillus brasiliensis, ASPEBR). The inoculated microtiter or petri plates were then sealed with a breathable film (AeraSeal; P/N: B-100, Excel Scientific, Victorville, CA).
# (§3) For treatment, the inoculated agar plates and clamshells containing fruits (e.g., strawberries and grapes) were placed inside a 36 L experimental chamber unit, which was then sealed prior to commencement of compound treatments. The chamber remained sealed throughout the duration of the experiment except for addition of treatment to the chamber, and post-treatment ventilation.
# (§4) Benzoxaborole Compound A or Compound B was dissolved in acetone and dispensed onto a 60 mm Whatman #1 filter paper disk using a pipette. The acetone was permitted to evaporate for five minutes before the disk was placed on a watch glass in each chamber.
# (§5) A 12% CO2 headspace treatment was then established in the chamber by permitting 10 grams (g) of crushed dry ice placed in a weigh boat in the chamber to evaporate in the sealed chamber. However, the bulkhead port of the chamber was loosened to permit the release of internal pressure. Optionally, a fan was used during the initial hours of treatment (i.e., up to about 6 hours of treatment) to ensure uniform treatment exposure of fruits and plates.
# (§6) Untreated controls and CO2 treated chambers contained an acetone-treated disk with similar evaporation for five minutes. CO2 and O2 levels in the chamber were monitored using a handheld gas detector (Dansensor Checkpoint II; P/N 600111, Ringsted, Denmark). Temperature and relative humidity were also monitored within the chamber using data loggers (Onset HOBO; P/N U12-013, Bourne, MA).
# (§7) The chamber for all in vitro and in vivo experiments was held at room temperature (i.e., from about 21° C. to about 23° C.) typically for about 3.5 days (i.e., about 84 hours) of treatment exposure. Chambers were then vented. After an additional 2-3 days with the chamber at room temperature, post-treatment radial growth (in mm) of each in vitro pathogen (see Examples 1-7, Tables 1-7) was measured on the inoculated plates using electronic calipers (Mitutoyo, P/N: CD-6-CX, Aurora, IL). In addition, the point of inoculation on fruits was assessed for indication of in vivo disease incidence (e.g., yes or no) and severity of disease incidence (see Examples 8-16, Tables 8-16). Disease severity was rated on a scale ranging from 0 to 4, where “0” indicated no disease severity, “1” indicated minimal disease severity, “2” indicated medium disease severity, “3” indicated high disease severity, and “4” indicated exceptionally high disease severity. […]
# [2] = test system: Penicillium expansum (PENIEX); test: as above; assay type: cell-based
# Excerpt: as §1, §2, §3, §4, §5, §6, §7
# [3] = test system: Botrytis cinerea (BOTRCI); test: as above; assay type: cell-based
# Excerpt: as §1, §2, §3, §4, §5, §6, §7
# [4] = test system: Aspergillus brasiliensis (ASPEBR); test: as above; assay type: cell-based
# Excerpt: as §1, §2, §3, §4, §5, §6, §7
# [5] = test system: Botrytis cinerea (BOTRCI) on strawberries; test: In vivo disease severity on wound-inoculated strawberries, benzoxaborole and CO2 chamber treatment
# Excerpt: as §1
# (§8) For in vivo experiments, eight strawberry fruits per repetition were surface sterilized with a 70% ethanol solution. After sterilization, the strawberries were rinsed twice with deionized water. Each strawberry fruit was wounded using a T15 screwdriver tip to a uniform depth of eight mm (8 mm). Each fruit wound was inoculated with 20 μL of 1×10^5 spores/ml pathogen spore suspension of B. cinerea or M. piriformis. The strawberries were then placed with the stem facing downwards inside a 1-pound strawberry clamshell.
# as §3, §4, §5, §6, §7
# [6] = test system: Botrytis cinerea (BOTRCI) on table grapes; test: In vivo disease severity on wound-inoculated table grapes, benzoxaborole and CO2 chamber treatment; details: Table 15, 12% CO2 alone, evaluated 1 day after treatment, fan continuous
# Excerpt: as §1
# (§9) Similarly, table grape fruits were also tested in vivo. More specifically, 16-20 table grapes per repetition were washed and inoculated with pathogens (as described above for the strawberries). However, an ethanol-sterilized push pin, rather than a T15 screwdriver, was used to wound the stem-end of the grapes. The grapes were inoculated in the wound, and then arranged inside a 1-pint clamshell.
# as §3, §4, §5, §6, §7
# [7] = test system: Penicillium expansum (PENIEX) on table grapes; test: as above; details: Table 16, 12% CO2 alone, evaluated 1 day after treatment, fan continuous
# Excerpt: as §1, §9, §3, §4, §5, §6, §7
# [8] = test system: Mucor piriformis (MUCOPI); test: In vitro fungal growth on inoculated agar plates, benzoxaborole and CO2 chamber treatment; assay type: cell-based; details: Table 3, 12% CO2 alone, evaluated 2 days after treatment, 6-well microtiter plate, fan first 6 hours, >90% R.H.
# Excerpt: as §1, §2, §3, §4, §5, §6, §7
# [9] = test system: Mucor piriformis (MUCOPI) on strawberries; test: In vivo disease severity on wound-inoculated strawberries, benzoxaborole and CO2 chamber treatment; details: Table 10, 12% CO2 alone, evaluated 2 days after treatment, fan first 6 hours, >90% R.H.
# Excerpt: as §1, §8, §3, §4, §5, §6, §7
# [10] = Table 5, compound 0.14 mg/L + 12% CO2, Colby equation E=x+y−x*y/100
# [11] = Table 5, compound 0.14 mg/L + 12% CO2, evaluated 2 days after treatment, 6-well plate, fan first 6 hours, >90% R.H.
# [12] = Table 5, compound alone 0.14 mg/L, evaluated 2 days after treatment, 6-well plate, fan first 6 hours, >90% R.H.
# [13] = Table 5, 12% CO2 alone, evaluated 2 days after treatment, 6-well plate, fan first 6 hours, >90% R.H.
# [14] = Table 1, 12% CO2 alone, evaluated 2 days after treatment completion, 6-well microtiter plate, 4 replicates, fan first 6 hours
# [15] = Table 4, 12% CO2 alone, evaluated 2 days after treatment completion, 6-well microtiter plate, fan first 6 hours
smiles,measurement,setting,value
Fc1ccc2c(c1)COB2OCCOB1OCc2cc(F)ccc21 [Compound B],Colby Calculation,[1]; [10],100.4
same,"Growth (diameter, mm) Cmpd + 12% CO2",[1]; [11],3.4 mm
same,"Growth (diameter, mm) Cmpd",[1]; [12],3.6 mm
same,Colby Calculation,[2]; [10],102.4
same,"Growth (diameter, mm) Cmpd + 12% CO2",[2]; [11],6.4 mm
same,"Growth (diameter, mm) Cmpd",[2]; [12],7.7 mm
same,Colby Calculation,[3]; [10],103.4
same,"Growth (diameter, mm) Cmpd + 12% CO2",[3]; [11],2.7 mm
same,"Growth (diameter, mm) Cmpd",[3]; [12],3.5 mm
same,Colby Calculation,[4]; [10],112.0
same,"Growth (diameter, mm) Cmpd + 12% CO2",[4]; [11],0.0 mm
same,"Growth (diameter, mm) Cmpd",[4]; [12],3.6 mm
same,Colby Calculation,"[5]; Table 11, compound 0.14 mg/L + 12% CO2, Colby equation E=x+y−x*y/100",105.0
same,"Growth (Severity, 0 to 4) Cmpd + 12% CO2","[5]; Table 11, compound 0.14 mg/L + 12% CO2, evaluated 2 days after treatment, fan first 6 hours, >90% R.H.",0.5
same,"Growth (Severity, 0 to 4) Cmpd","[5]; Table 11, compound alone 0.14 mg/L, evaluated 2 days after treatment, fan first 6 hours, >90% R.H.",0.9
same,Colby Calculation,"[5]; Table 12, compound 0.14 mg/L + 12% CO2, Colby equation E=x+y−x*y/100",100.9
same,"Growth (Severity, 0 to 4) Cmpd + 12% CO2","[5]; Table 12, compound 0.14 mg/L + 12% CO2, evaluated 2 days after treatment, fan first 6 hours, >90% R.H.",0.3
same,"Growth (Severity, 0 to 4) Cmpd","[5]; Table 12, compound alone 0.14 mg/L, evaluated 2 days after treatment, fan first 6 hours, >90% R.H.",0.4
"O=C=O [CO2, carbon dioxide]","Growth (Severity, 0 to 4) 12% CO2",[6],1.4
same,"Growth (Severity, 0 to 4) 12% CO2",[7],1.9
same,"Growth (diameter, mm) 12% CO2",[1]; [13],33.9 mm
same,"Growth (diameter, mm) 12% CO2",[2]; [14],18.6 mm
same,"Growth (diameter, mm) 12% CO2","[2]; Table 2, 12% CO2 alone, evaluated 2 days after treatment, 6-well microtiter plate, fan first 6 hours, >90% R.H.",21.3 mm
same,"Growth (diameter, mm) 12% CO2",[2]; [15],21.2 mm
same,"Growth (diameter, mm) 12% CO2",[2]; [13],19.9 mm
same,"Growth (diameter, mm) 12% CO2","[2]; Table 7, 12% CO2 alone, evaluated 3 days after treatment, 10 cm Petri plates, fan continuous",25.8 mm
same,"Growth (diameter, mm) 12% CO2",[3]; [14],28.0 mm
same,"Growth (diameter, mm) 12% CO2","[3]; Table 3, 12% CO2 alone, evaluated 2 days after treatment, 6-well microtiter plate, fan first 6 hours, >90% R.H.",30.9 mm
same,"Growth (diameter, mm) 12% CO2",[3]; [15],33.4 mm
same,"Growth (diameter, mm) 12% CO2",[3]; [13],35.0 mm
same,"Growth (diameter, mm) 12% CO2","[3]; Table 6, 12% CO2 alone, evaluated 3 days after treatment, 10 cm petri plates, fan continuous",78.9 mm
same,"Growth (diameter, mm) 12% CO2",[8],35.0 mm
same,"Growth (diameter, mm) 12% CO2",[4]; [13],26.2 mm
same,"Growth (Severity, 0 to 4) 12% CO2",[9],3.0
same,"Growth (Severity, 0 to 4) 12% CO2","[5]; Table 8, 12% CO2 alone, evaluated 2 days after treatment, 4 replicates, fan first 6 hours, >90% R.H.",3.7
same,"Growth (Severity, 0 to 4) 12% CO2","[5]; Table 9, 12% CO2 alone, evaluated 3 days after treatment, fan first 6 hours, >90% R.H.",3.5
same,"Growth (Severity, 0 to 4) 12% CO2","[5]; Table 11, 12% CO2 alone, evaluated 2 days after treatment, fan first 6 hours, >90% R.H.",2.7
same,"Growth (Severity, 0 to 4) 12% CO2","[5]; Table 12, 12% CO2 alone, evaluated 2 days after treatment, fan first 6 hours, >90% R.H.",3.4
same,"Growth (Severity, 0 to 4) 12% CO2","[5]; Table 13, 12% CO2 alone, evaluated 3 days after treatment, fan run continuously",3.2
same,"Growth (Severity, 0 to 4) 12% CO2","[5]; Table 14, 12% CO2 alone, evaluated 3 days after treatment, fan continuous",3.9
